The source of these data is patent US5348956A, “Substituted cyclopropylamino-1,3,5-triazines” (UCB S.A., priority 1991, dated 1994).

The subject of one series is serotonergic activity. Nature of the series: "wet dog shake" (WDS) behavior, serotonergic activity. The format is in vivo, male Sprague-Dawley rats. As for the experimental part: A decrease in serotonergic activity has been correlated with the occurrence of affective disorders, such as depression and anxiety. […] The test is carried out in the morning on male Sprague-Dawley rats (±180 g), divided the previous day into groups of 8 animals in residence cages. The cage used for the tests is a transparent enclosure of 12×24×30 cm in height, the floor of which is covered with a layer of sand. The compounds to be tested, dissolved either in physiological salt solution or in a citrate buffer of pH 5, are administered intraperitoneally in a different dose for each group treated. The control groups receive an intraperitoneal injection of the same vehicle (either physiological salt solution or citrate buffer). […] The mean values of the results are calculated and analyzed statistically by the Mann-Whitney method. The mean values of the number of shakes obtained for the compounds according to the invention administered intraperitoneally at the doses indicated (in mg/kg) are given in Table V below.

The subject of series [1] is bronchospasm induced by acetylcholine. Nature of the series: bronchospasmolytic activity (Konzett and Roessler), bronchospasm induced by acetylcholine. To be noted: Cavia porcellus; intravenous; acetylcholine-induced bronchospasm; read-out: Doses (ID50), Acetylcholine. The format is in vivo, Dunkin-Hartley guinea-pig. As for the experimental part: (§1) This activity was measured in the Dunkin-Hartley guinea-pig by the method of H. KONZETT and […] (Naunyn Schmiedebergs Arch. exp. Path. […] The anesthetized (urethane) and curarized (gallamine) guinea-pig is placed under assisted respiration. The endotracheal pressure is recorded. […] The compound to be tested is also administered intravenously two minutes before the administration of the spasmogen and then in 3 to 4 cumulative doses in increasing amounts at intervals of 15 minutes. Six animals per compound to be tested and per spasmogen are used.

In series [2] the test system is bronchospasm induced by serotonin. Nature of the series: bronchospasmolytic activity (Konzett and Roessler), bronchospasm induced by serotonin. Type of series: in vivo, Dunkin-Hartley guinea-pig. To be noted: Cavia porcellus; intravenous; serotonin-induced bronchospasm; read-out: Doses (ID50), Serotonin. How it is done: as §1
The nature of the next series: toxicity, Irwin's test. Type of series: in vivo. The settings on record: i.p.; death of two animals out of three within 48 hours. As for the experimental part:
Progressive doses of the compound to be tested are administered intraperitoneally to groups of three mice until the lethal dose is reached (dose which causes the death of two animals out of three within 48 hours).

For series [3], the system named is anaphylactic release of histamine, guinea-pig lung sections. Nature of the series: potentiation of the inhibition of anaphylactic histamine release by isoprenaline. The format is cell-based, Dunkin-Hartley guinea-pigs. To be noted: with isoprenaline 10^-7 mole per liter. As for the experimental part:
(§2) Dunkin-Hartley guinea-pigs which are first passively sensitized by an intravenous injection of 1 ml of isologous antiovalbumin serum are used. Twenty-four hours after the injection, the lungs are then perfused with a Tyrode buffer to evacuate the blood, and then removed and cut into sections of 1 mm. These sections are divided up into test tubes (3 sections per tube) to give 10 experimental groups of lung sections per guinea-pig. A "positive" control group of lung sections is stimulated by addition of an ovalbumin solution (0.1 mg/ml) to induce the anaphylactic release of histamine and serves to determine the maximum amount of histamine (100%) which can be released. A "negative" control group which is not stimulated by ovalbumin serves to determine the naturally released amount of histamine (spontaneous release). In three other groups, the lung sections are incubated at 37° C. for 30 minutes in the ovalbumin solution in the presence of three different doses of the compound to be tested (one dose per group). […] At this dose, isoprenaline inhibits the release of histamine by 30 to 40%, which is verified on a control group treated only with isoprenaline alone at this dose. In addition, a supplementary control group which is not stimulated by ovalbumin is used to detect a possible spontaneous release of histamine by the highest dose of the compound tested. In each group, the histamine released in the incubation medium is measured by spectrofluorometry (D. P. EVANS et al., Life Sci., 12, (1973), 327-336).

The test system is the same in series [4]. The series is described as follows: inhibition of the anaphylactic release of histamine (proper effect). Type of series: cell-based, Dunkin-Hartley guinea-pigs. To be noted: Cavia porcellus, in vitro, read-out: Minimum inhibitory dose (MID). How it is done: as §2
Series [5] has as its system plantar edema induced by immune complexes. The series is described as follows: "reverse passive Arthus" (RPA) test, anti-inflammatory and anti-edema activity. Type of series: in vivo, Sprague-Dawley rat. To be noted: Rattus norvegicus, intravenous. How it is done: The reaction between a soluble antigen and antibodies in the organism may lead to an acute inflammatory reaction accompanied by release of histamine, modification of vascular permeability and formation of a localized edema. […] To this end, the Arthus reaction is induced by subplantar administration of 0.1 ml of heterologous antivalbumin reaginic serum into the right hind paw and by simultaneous intravenous injection of 1 ml/kg ovalbumin (25 mg/ml). The compound to be tested is administered intravenously 30 seconds before induction of the Arthus reaction, in a least 3 different doses. A group of 6 rats is used per dose of compound to be tested. The volume of the paw is measured by plethysmometry before the Arthus reaction and 3 to 5 hours after induction of the Arthus reaction, both in the control animals and in the treated animals. The effect of a compound on the reduction in the edema for each dose and at each measurement time (3 hours and 5 hours) is expressed in % of the edema observed in the control animals. The doses of the compounds (ID30 in μmole/kg) which inhibit by 30%, on average over all the animals, the volume of the edema observed in the control animals are given in Table VII below.

Series [6] deals with bronchospasm induced by histamine. The series is described as follows: bronchospasmolytic activity (Konzett and Roessler), bronchospasm induced by histamine. The format is in vivo, Dunkin-Hartley guinea-pig. The settings on record: Cavia porcellus; intravenous; histamine-induced bronchospasm; read-out: Doses (ID50), Histamine. How it is done: as §1
Series [7] deals with longitudinal muscles of the ileum contracted by histamine. The series is described as follows: potentiation of the myorelaxing effect of isoprenaline on the ileum. Type of series: cell-based, Dunkin-Hartley guinea-pigs. The settings on record: with isoprenaline 10^-7 mole/l; histamine 3.2 μmoles/l. As for the experimental part:
(cf. R. A. TURNER, "Screening Methods in Pharmacology", Ed. Acad. Press, San Diego, 1965, chapter IV, pages 43-47). […] Inhibition cycle: When the successive contractions induced by the histamine injections have become reproducible, the compound to be tested is injected immediately after the second wash. The contraction induced by the following injection of histamine is measured and compared with the average of the three preceding contractions caused by the repeated injections of histamine (control contractions). From the result obtained, the percentage inhibition of the contraction is calculated. Several cycles of histamine injection are then performed again, until the contractions of the muscle become reproducible again; the muscle is then ready for testing of another compound. The potentiating effect of a compound is measured in the course of a so-called "potentiation" cycle, which comprises three successive inhibition cycles. […] In the course of the second inhibition cycle, the percentage inhibition of the contraction obtained with the compound to be tested, injected alone at a given dose, is determined. In the third inhibition cycle, isoprenaline and the compound to be tested are injected simultaneously, and the percentage inhibition of the contraction is calculated for the dose used of the compound tested. The same experiments are repeated for each of the doses of the compounds tested.

Setting [8] is: 3 hours after induction of the Arthus reaction, read-out: Dose (ID30), 3 hours.
Where [9] appears, read: 5 hours after induction of the Arthus reaction, read-out: Dose (ID30), 5 hours.

Where a name gives a salt, the structure may show the parent alone. Read-outs that look alike come from different tables or passages of the source.

As to `N[C@@H](Cc1c[nH]c2ccc(O)cc12)C(=O)O` [5-HTP/carbidopa, 5-hydroxytryptophan, reference compound], the “Average number of shakes” value in the series on serotonergic activity (5-HTP 100.0 mg/kg i.p. after carbidopa 25 mg/kg i.p., measured 90 to 120 minutes after 5HTP) is recorded as 4.7 ± 1.5 shakes; in the series on serotonergic activity (5-HTP 200.0 mg/kg i.p. after carbidopa 25 mg/kg i.p., measured 90 to 120 minutes after 5HTP), 19.6 ± 3.0 shakes.
`C1CCC(c2nc(NC3CC3)nc(N3CCOCC3)n2)C1` [Compound 8]: the results for the ED50 in [1], in series [2] and in series [6] were 0.2 µmol/kg, 0.3 µmol/kg and 0.1 µmol/kg, respectively. The same compound registered a Lethal dose in “toxicity, Irwin's test” of 326 mg/kg. Besides, the “Minimum potentiating dose (MPD)” value in series [3] turned out to be 10.0 µmol/L. For the same compound, the minimal effective concentration in series [4] is 1 µM. Moreover, the ED30 in series [5] (setting [8]) and in series [5] (setting [9]) was 4 µmol/kg each time.
In the case of `O=C1CN(c2nc(NC3CC3)nc(C3CC3)n2)C1` [Compound 17], the ED50 in series [1] came to 0.2 µmol/kg; in series [2], 0.2 µmol/kg; in series [6], 0.1 µmol/kg. The Lethal dose in the series “toxicity, Irwin's test” is 281.5 mg/kg. Besides, the “Minimum potentiating dose (MPD)” value in [7] was 0.32 µmol/L; in [3], 1.0 µmol/L. The minimal effective concentration in series [4] was 3.2 µM. Further, the ED30 in [5] (setting [8]) and in series [5] (setting [9]) was 1 µmol/kg in each case. In the series on serotonergic activity (2.8 mg/kg i.p., counted over 30 minutes), the “Average number of shakes” value worked out at 10.5 ± 2.9 shakes.
In “toxicity, Irwin's test”, `C1CN(c2nc(NC3CC3)nc(C3CC3)n2)CCS1` [Compound 18, 2-Cyclopropyl-4-cyclopropylamino-6-thiomorpholino-1,3,5-triazine] displayed a Lethal dose of 277 mg/kg. Also, the figures for the “Minimum potentiating dose (MPD)” value in series [7] and in series [3] were 0.1 µmol/L and 1.0 µmol/L, respectively. The minimal effective concentration in series [4] worked out at 0.1 µM. Further, the ED30 in [5] (setting [8]) and in [5] (setting [9]) was 1 µmol/kg in each case. Further, in the series on serotonergic activity (0.88 mg/kg i.p., counted over 30 minutes), the “Average number of shakes” value came out at 10.6 ± 3.0 shakes. Besides, the ED50 in series [6] came to 0.003 µmol/kg.
Regarding `[O-][S+]1CCN(c2nc(NC3CC3)nc(C3CC3)n2)CC1` [Compound 19, 2-Cyclopropyl-4-cyclopropylamino-6-thiomorpholino-1,3,5-triazine S-oxide], the ED50 in series [1] worked out at 0.1 µmol/kg; in series [2], 0.04 µmol/kg; in [6], 0.02 µmol/kg. The compound also showed a Lethal dose in “toxicity, Irwin's test” of 175.6 mg/kg. Moreover, the figures for the “Minimum potentiating dose (MPD)” value in series [7] and in series [3] were 0.32 µmol/L and 0.1 µmol/L, respectively. Moreover, in series [4], the minimal effective concentration was determined as 1 µM. The ED30 in series [5] (setting [8]) and in series [5] (setting [9]) was 0.02 µmol/kg in each case. Besides, the “Average number of shakes” value with serotonergic activity (0.94 mg/kg i.p., counted over 30 minutes) worked out at 16.0 ± 4.7 shakes.
Consider `C1CN(c2nc(NC3CC3)nc(C3CC3)n2)CS1` [Compound 21, 2-Cyclopropyl-4-cyclopropylamino-6-(3-thiazolidinyl)-1,3,5-triazine], for which the Lethal dose in the series “toxicity, Irwin's test” is recorded as 263 mg/kg. In [3], the “Minimum potentiating dose (MPD)” value came to 0.32 µmol/L. The minimal effective concentration in series [4] worked out at 0.1 µM. Further, in the series with serotonergic activity (2.63 mg/kg i.p., counted over 30 minutes), the “Average number of shakes” value came out at 5.5 ± 2.0 shakes.
In turn, `O=S1(=O)CCN(c2nc(NC3CC3)nc(C3CC3)n2)C1` [Compound 22, 2-Cyclopropyl-4-cyclopropylamino-6-(3-thiazolidinyl)-1,3,5-triazine S,S-dioxide] registered a Lethal dose in “toxicity, Irwin's test” of 295 mg/kg. Further, the “Minimum potentiating dose (MPD)” value in series [3] was found to be 0.032 µmol/L. Besides, the minimal effective concentration in series [4] turned out to be 0.1 µM. Besides, the “Average number of shakes” value with serotonergic activity (0.95 mg/kg i.p., counted over 30 minutes) is 8.1 ± 1.7 shakes.
Take `[O-][S+]1CCN(c2nc(NC3CC3)nc(C3CC3)n2)C1` (stereo not shown) [Compound 23, 2-Cyclopropyl-4-cyclopropylamino-6-(3-thiazolidinyl)-1,3,5-triazine S-oxide]: in “toxicity, Irwin's test”, the Lethal dose came to 156 mg/kg.
As to `CC1(c2nc(NC3CC3)nc(N3CCOCC3)n2)CC1` [Compound 24, 2-Cyclopropylamino-4-(1-methylcyclopropyl)-6-morpholino-1,3,5-triazine], in “toxicity, Irwin's test”, the Lethal dose is reported as 825 mg/kg. Besides, the “Minimum potentiating dose (MPD)” value in series [3] came to 0.32 µmol/L. Also, the minimal effective concentration in series [4] amounted to 0.032 µM. Moreover, the “Average number of shakes” value in the series on serotonergic activity (2.75 mg/kg i.p., counted over 30 minutes) is 6.1 ± 2.3 shakes. For the same compound, the ED50 in series [6] was 0.04 µmol/kg.
The compound `CC1CC1c1nc(NC2CC2)nc(N2CCOCC2)n1.Cl` (stereo not shown) [Compound 25, 2-Cyclopropylamino-4-(2-methylcyclopropyl)-6-morpholino-1,3,5-triazine hydrochloride] registered a Lethal dose in “toxicity, Irwin's test” of 99.7 mg/kg. Also, in series [3], the “Minimum potentiating dose (MPD)” value was found to be 0.032 µmol/L. For the same compound, the minimal effective concentration in series [4] came out at 0.032 µM. Also, in the series on serotonergic activity (1.0 mg/kg i.p., counted over 30 minutes), the “Average number of shakes” value is 19.6 ± 5.0 shakes.
In the series “toxicity, Irwin's test”, `O=S1(=O)CCN(c2nc(NC3CC3)nc(C3CCC3)n2)CC1` [Compound 26, 2-Cyclobutyl-4-cyclopropylamino-6-thiomorpholino-1,3,5-triazine S,S-dioxide hydrochloride] had a Lethal dose of 201.5 mg/kg. Besides, the “Minimum potentiating dose (MPD)” value in series [3] was determined as 0.32 µmol/L. In addition, in series [4], the minimal effective concentration worked out at 1 µM. In addition, the “Average number of shakes” value in the series with serotonergic activity (1.15 mg/kg i.p., counted over 30 minutes) came out at 11.8 ± 4.3 shakes. The ED50 in series [6] is 0.03 µmol/kg.
